# “And” between values parts separate entries of the source, which are not always exact repeats. Identical values can stand only once. Like-named read-outs stand apart in the source and are kept apart here.
# Key:
# [1] = Pharmacokinetics of CR8 in mouse plasma after oral and i.v. administration (HPLC-UV); type: in vivo, mice
# Procedure: 70 μl plasma was added to 140 μl methanol and vortexed for 15 sec. Samples were centrifuged at 10000 g for 10 minutes, and 50 μl from the supernatant were injected into the HPLC system.
# Female BALB/c mice 8–10 weeks old and weighing 18–21 g were obtained from Scanbur, Sollentuna, Sweden. The mice were allowed to acclimatize to their surroundings for one week before starting treatment. The mice were fed pelleted food and water ad libitum.
# CR8 was dissolved in DMSO: 50 mM HCl (10:90 v/v). The first group of mice received i.v. doses of CR8 (50 mg/kg body weight), the second received oral doses of CR8 (100 mg/kg body weight) and three control mice received vehicle alone. Three mice were sacrificed at each time point and blood samples were collected by cardiac puncture into heparinized tubes at 10, 20, 30, 60 min, 2, 4, 6, 8 h post administration. Blood samples were centrifuged immediately after collection at 3000 g for 5 min at 4°C and the plasma was prepared as mentioned previously. Supernatants were collected and all samples were frozen at −20°C directly after preparation until further analysis by HPLC. Other organs including liver, spleen, kidneys, brain, adipose tissue and lungs were removed, washed and snap frozen immediately in liquid nitrogen. Bone marrow was flushed from both femurs and mononuclear cells were counted and frozen. The samples were stored at −20°C to avoid any metabolic activity.
# Parameters including distribution volume of the central compartment, elimination rate constant, plasma maximum concentration and micro constants were estimated. Clearance (Cl) and distribution volume at the steady state were calculated from the primary parameters. The plasma concentration versus time curves (AUC) were calculated from the model derived parameters, and the elimination half-lives were calculated from the slope of the terminal elimination phase. Bone marrow data were derived after adjustment of concentrations to 10^9 cells (= approx. 1 g of tissue). The pharmacokinetic modeling was performed using WinNonlin version 5.2 (Pharsight, USA).
# Oral bioavailability (F) defined as the fraction of the oral administered dose of CR8 that reaches the systemic circulation was calculated according to the following formula:
# F=AUCpo∗doseIV/AUCIV∗dosepo
# [2] = biological target: casein kinase 1 (CK1); set-up: method as in PMID 18574471; settings: cited from earlier work
# [3] = tested on: CDK; set-up: method as in PMID 18574471; settings: in-vitro; cited from earlier work
# [4] = tested on: tumor cell lines; settings: cited from earlier work
# [5] = Stability of CR8 in plasma quality control samples and solution; type: physicochemical, human
# Procedure: Four quality control samples at concentrations of 0.75, 1.5, 3.5 and 7.0 μg/ml were also prepared in triplicate and stored at room temperature, +4°C and −20°C for stability testing.
# The stability of CR8 was determined in plasma samples using concentrations of 0.75, 1.5, 3.5 and 7.0 μg/ml (in triplicate). The samples were kept at room temperature, +4°C and −20°C and analyzed twice weekly for 2 months. Peak areas of all the samples were compared to peak areas obtained at time zero.
# [6] = tested on: CDK5/p25; set-up: method as in PMID 18574471; settings: cited from earlier work
# [7] = Biodistribution of CR8 to mouse organs after oral administration; type: in vivo, mice; set-up: V2/F: unit not given here; settings: for AUC / Beta-HL / V2/F / Cmax: single oral 100 mg/kg; for Tissue/plasma exposure ratio (% AUC organ vs. AUC plasma) / Kp: oral 100 mg/kg, 100 mg/kg; for Kp / Cmax: female, BALB/c, mouse; for Kp: po
# Procedure: CR8 was dissolved in DMSO: 50 mM HCl (10:90 v/v). The first group of mice received i.v. doses of CR8 (50 mg/kg body weight), the second received oral doses of CR8 (100 mg/kg body weight) and three control mice received vehicle alone. […] Supernatants were collected and all samples were frozen at −20°C directly after preparation until further analysis by HPLC. Other organs including liver, spleen, kidneys, brain, adipose tissue and lungs were removed, washed and snap frozen immediately in liquid nitrogen. Bone marrow was flushed from both femurs and mononuclear cells were counted and frozen. The samples were stored at −20°C to avoid any metabolic activity. […] Femurs were removed and cleaned; bone marrow was flushed with 0.3 ml of PBS and single cell suspension was prepared by gentle flushing through needle and syringe. Nucleated cells were counted using Türk solution and bone marrow was stored at −20°C until assay. Parameters including distribution volume of the central compartment, elimination rate constant, plasma maximum concentration and micro constants were estimated. Clearance (Cl) and distribution volume at the steady state were calculated from the primary parameters. The plasma concentration versus time curves (AUC) were calculated from the model derived parameters, and the elimination half-lives were calculated from the slope of the terminal elimination phase. Bone marrow data were derived after adjustment of concentrations to 10^9 cells (= approx. 1 g of tissue). The pharmacokinetic modeling was performed using WinNonlin version 5.2 (Pharsight, USA).
# [8] = given i.v. at the same dosage; cited from earlier work
# [9] = bone marrow vs plasma; cited from earlier work
smiles,measurement,setting,value
CC[C@H](CO)Nc1nc(NCc2ccc(-c3ccccn3)cc2)c2ncn(C(C)C)c2n1 [CR8],Beta-HL,"[1]; Plasma, single oral 100 mg/kg",3.10 h
same,V2/F,"[1]; Plasma, single oral 100 mg/kg",21.0
same,half-life,"[1]; female, BALB/c, mouse, plasma, female BALB/c mice, read-out: Half-life (converted)",~180 min
same,AUC,"[1]; female, BALB/c, mouse, plasma, iv, 50 mg/kg, plasma, 50 mg/kg intravenously, read-out: AUC",~45000 ng·h/mL
same,Cmax,"[1]; female, BALB/c, mouse, plasma, iv, 50 mg/kg, plasma, i.v. bolus 50 mg/kg, estimated, read-out: Cmax (maximum reached concentration)",> 100000 ng/mL
same,AUC,"[1]; female, BALB/c, mouse, plasma, iv, 50 mg/kg, plasma, i.v. bolus 50 mg/kg, mice, read-out: AUC (area under time plasma concentration curve)",44400 ± 3300 ng·h/mL
same,half-life,"[1]; female, BALB/c, mouse, plasma, iv, 50 mg/kg, plasma, i.v. bolus 50 mg/kg, read-out: Tα (first elimination half-life) (converted)",6.6 ± 0.6 min
same,half-life,"[1]; female, BALB/c, mouse, plasma, iv, 50 mg/kg, plasma, i.v. bolus 50 mg/kg, read-out: Tβ (terminal elimination half-life) (converted)",177 ± 6.6 min
same,clearance,"[1]; female, BALB/c, mouse, plasma, iv, i.v. bolus 50 mg/kg, read-out: CL (clearance) (converted)",0.383 mL/min
same,Vd,"[1]; female, BALB/c, mouse, plasma, iv, i.v. bolus 50 mg/kg, read-out: Vss (distribution volume at steady state)",0.044 ± 0.004 L
same,half-life,"[1]; female, BALB/c, mouse, plasma, mice, read-out: Elimination half-life (converted)",~180 min
same,bioavailability,"[1]; female, BALB/c, mouse, plasma, oral, 100 mg/kg, oral 100 mg/kg vs i.v. 50 mg/kg, F=AUCpo*doseIV/AUCIV*dosepo",~100%
same,Tmax,"[1]; female, BALB/c, mouse, plasma, oral, 100 mg/kg, mice, read-out: Time of maximum concentrations (converted)",30 min
same,AUC,"[1]; female, BALB/c, mouse, plasma, po, 100 mg/kg, Plasma, single oral 100 mg/kg, read-out: AUC",96000 ng·h/mL
same,Cmax,"[1]; female, BALB/c, mouse, plasma, po, 100 mg/kg, Plasma, single oral 100 mg/kg, read-out: Cmax",34300 ng/mL
same,AUC,"[1]; female, BALB/c, mouse, plasma, po, 100 mg/kg, plasma, 100 mg/kg orally, read-out: AUC",~100000 ng·h/mL
same,AUC,"[1]; female, BALB/c, mouse, plasma, po, 100 mg/kg, plasma, single oral 100 mg/kg, mice, read-out: AUC (area under time plasma concentration curve)",96300 ± 10500 ng·h/mL
same,Cmax,"[1]; female, BALB/c, mouse, plasma, po, 100 mg/kg, plasma, single oral 100 mg/kg, read-out: Cmax (maximum reached concentration)",34300 ± 1940 ng/mL
same,half-life,"[1]; female, BALB/c, mouse, plasma, po, 100 mg/kg, plasma, single oral 100 mg/kg, read-out: Tα (first elimination half-life) (converted)",78 ± 25.8 min
same,half-life,"[1]; female, BALB/c, mouse, plasma, po, 100 mg/kg, plasma, single oral 100 mg/kg, read-out: Tβ (terminal elimination half-life) (converted)",186 ± 21 min
same,Cmax after i.v. compared to oral administration,[1]; i.v. 50 mg/kg vs oral 100 mg/kg,4 fold
same,CL (clearance),[1]; single oral 100 mg/kg,21 ± 2 mL/h
same,Vss (distribution volume at steady state),[1]; single oral 100 mg/kg,21 ± 3 mL
same,IC50,[2],610 nM
same,Potency as CDK inhibitor relative to roscovitine,[3],2–4 fold
same,IC50,"[4]; different cell lines, read-out: Optimal concentration for pharmacological effect in-vitro in different cell lines (reported average IC50)",~700 nM and 700 nM
same,Anti-tumor IC50 values found in-vitro,"[4]; in-vitro, reference not given",0.3 µg/mL
same,Stability (concentration of QC samples remaining vs time zero),"[5]; plasma QC samples, 2 months at room temperature, +4°C or −20°C",approximately 97 ± 3.5%
same,Time for which stable,"[5]; room temperature, in both solution and plasma",2 months
same,IC50,[6],120 nM
same,AUC,[7]; Adipose tissue,181 µg·h/g
same,Beta-HL,[7]; Adipose tissue,2.40 h
same,V2/F,[7]; Adipose tissue,38.2
same,AUC,[7]; Bone marrow (10^9 cells = approx. 1 g),34 µg·h/g
same,Beta-HL,[7]; Bone marrow,1.98 h
same,V2/F,[7]; Bone marrow,84.5
same,AUC,[7]; Brain,14 µg·h/g
same,Beta-HL,[7]; Brain,2.12 h
same,V2/F,[7]; Brain,447.5
same,AUC,[7]; Kidney,145 µg·h/g
same,Beta-HL,[7]; Kidney,2.62 h
same,V2/F,[7]; Kidney,52.2
same,AUC,[7]; Liver,197 µg·h/g
same,Beta-HL,[7]; Liver,2.43 h
same,V2/F,[7]; Liver,35.8
same,AUC,[7]; Lung,77 µg·h/g
same,Beta-HL,[7]; Lung,2.58 h
same,V2/F,[7]; Lung,96.7
same,AUC,[7]; Spleen,40 µg·h/g
same,Beta-HL,[7]; Spleen,2.60 h
same,V2/F,[7]; Spleen,74.5
same,Tissue/plasma exposure ratio (% AUC organ vs. AUC plasma),[7]; adipose tissue,180%
same,Kp,"[7]; adipose tissue, adipose tissue, read-out: Tissue/plasma exposure ratio (% AUC organ vs. AUC plasma)",1.88
same,Kp,"[7]; bone marrow, bone marrow, concentrations normalized to tissue weight/g, read-out: Tissue/plasma exposure ratio (% AUC organ vs. AUC plasma)",0.3
same,Kp,"[7]; brain, brain, read-out: Tissue/plasma exposure ratio (% AUC organ vs. AUC plasma; concentration in brain vs plasma)",0.15
same,Kp,"[7]; kidney, kidney, read-out: Tissue/plasma exposure ratio (% AUC organ vs. AUC plasma)",1.5
same,Kp,"[7]; liver, liver, read-out: Tissue/plasma exposure ratio (% AUC organ vs. AUC plasma)",2.05
same,Kp,"[7]; lung, lung, read-out: Tissue/plasma exposure ratio",0.8
same,Kp,"[7]; spleen, spleen, read-out: Tissue/plasma exposure ratio",0.5
same,Cmax,[7]; Adipose tissue,48700 ng/g
same,Cmax,[7]; Bone marrow,10600 ng/g
same,Cmax,[7]; Brain,4100 ng/g
same,Cmax,[7]; Kidney,36000 ng/g
same,Cmax,[7]; Liver,52400 ng/g
same,Cmax,[7]; Lung,19300 ng/g
same,Cmax,[7]; Spleen,27700 ng/g
same,Tissue/plasma exposure ratio (% AUC organ vs. AUC plasma),[7]; liver,200%
CC[C@H](CO)Nc1nc(NCc2ccccc2)c2ncn(C(C)C)c2n1 [roscovitine],Reported half-life,[8],approximately 1 hour
same,Distribution to bone marrow,[9],1.5%

# Reference: PMC3849647, “Pharmacokinetics and biodistribution of the cyclin-dependent kinase inhibitor -CR8- in mice” (BMC Pharmacology & Toxicology, 2013)
